Results: patent US20250289785A1, “INDOLE DERIVATIVE, METHOD FOR PREPARING SAME, AND USE THEREOF” (MITOIMMUNE THERAPEUTICS INC., priority 2021, published 2025)

How the values were obtained:
[1] = test system: ARPE-19 cells; test: Cell death protective effect in retinal epithelial cells against Erastin and RSL3 (LDH); type: cell-based, human; conditions: 24 h
Method: In order to identify the protective effect on retinal epithelial cells, ARPE-19 cells were divided into 96-well plates by 1×10^4 and cultured for 18 to 24 hours. The compounds of Examples were diluted to final concentrations of 0.03 and 0.3 μM, treated in each well, and incubated for 20 minutes. Erastin, and RSL3 were treated to have final concentrations of 10 μM, and 0.3 μM, respectively, and cultured for 24 hours. In order to identify the protective effect of each compound, the degree of LDH extracellular secretion was measured using cytotoxicity LDH assay kit [Dojindo; CK12]. Briefly, at the time when the treatment of the cells with Erastin, and RSL3 for 24 hours is completed, the supernatants containing the cells are taken by 70 μL and transferred to a new 96-well plate. The assay buffer included in the kit is added in an amount of 70 μL/well (the same amount as the sample) thereto, and then the plate is wrapped with a foil and the reaction is performed at room temperature for 15 minutes.

[2] = test system: PC-12 cells; test: Cell death protective effect in adrenal cells against Erastin, glutamate and RSL3 (LDH); type: cell-based, rat; conditions: 24 h
Method: In order to identify the protective effect on adrenal cells, PC-12 cells were divided into 96-well plates by 1×10^4 and cultured for 18 to 24 hours. […] Erastin, glutamate, and RSL3 were treated to have final concentrations of 1 μM, 10 mM, and 0.3 μM, respectively, and cultured for 24 hours. In order to identify the protective effect of each compound, the degree of LDH extracellular secretion was measured using cytotoxicity LDH assay kit [Dojindo; CK12]. Briefly, at the time when the treatment of the cells with Erastin, glutamate, and RSL3 for 24 hours is completed, the supernatants containing the cells are taken by 70 μL and transferred to a new 96-well plate. The assay buffer included in the kit is added in an amount of 70 μL/well (the same amount as the sample) thereto, and then the plate is wrapped with a foil and the reaction is performed at room temperature for 15 minutes.

[3] = test system: NRK-49F cells; test: Cell death protective effect in renal fibroblasts against Erastin, glutamate and RSL3 (LDH); type: cell-based, rat; conditions: 24 h
Method: (§1) In order to identify the protective effect on renal fibroblasts, NRK-49F cells were divided into 96-well plates by 1×10^4 and cultured for 18 to 24 hours. The compounds of Examples were diluted to final concentrations of 0.1 and 1. μM, treated in each well, and incubated for 15 to 20 minutes. Erastin, glutamate, and RSL3 were treated to have final concentrations of 3 μM, 75 mM, and 3 μM, respectively, and cultured for 24 hours. In order to identify the protective effect of each compound, the degree of LDH extracellular secretion was measured using cytotoxicity LDH assay kit [Dojindo; CK12]. Briefly, at the time when the treatment of the cells with Erastin, glutamate, and RSL3 for 24 hours is completed, the supernatants containing the cells are taken by 70 μL and transferred to a new 96-well plate. The assay buffer included in the kit is added in an amount of 70 μL/well (the same amount as the sample) thereto, and then the plate is wrapped with a foil and the reaction is performed at room temperature for 15 minutes.

[4] = test system: MLE-12 cells; test: Cell death protective effect in lung epithelial cells against RSL3 (LDH); type: cell-based, rat; conditions: MLE-12, RSL3, 1 μM, 24 h
Method: In order to identify the protective effect on lung epithelial cells, MLE-12 cells were divided into 96-well plates by 5×10^3 and cultured for 18 to 24 hours. The compounds of Examples were diluted to final concentrations of 0.03 and 0. μM, treated in each well, and incubated for 20 minutes. RSL3 was treated to have final concentrations of 1. μM, respectively, and cultured for 24 hours. In order to identify the protective effect of each compound, the degree of LDH extracellular secretion was measured using cytotoxicity LDH assay kit [Dojindo; CK12]. Briefly, at the time when the treatment of the cells with RSL3 for 24 hours is completed, the supernatants containing the cells are taken by 70 μL and transferred to a new 96-well plate. The assay buffer included in the kit is added in an amount of 70 μL/well (the same amount as the sample) thereto, and then the plate is wrapped with a foil and the reaction is performed at room temperature for 15 minutes.

[5] = test system: NIH/3T3 cells; test: Cell death protective effect in fibroblasts against Erastin, glutamate and RSL3 (LDH); type: cell-based, mouse; conditions: 24 h
Method: as §1, with “on” for “on renal”, “NIH/3T3” for “NRK-49F”, “8×10^3” for “1×10^4”, “1” for “1.”, “30” for “75”

CCOC(=O)c1ccc(NC2CCCCC2)c(N)c1 [Ferrostatin-1, reference compound]
inhibition (%) ([1]; ARPE-19, Erastin, 10 μM, compound 0.03 μM): 96%
inhibition (%) ([1]; ARPE-19, Erastin, 10 μM, compound 0.3 μM): 100%
inhibition (%) ([1]; ARPE-19, RSL3, 0.3 μM, compound 0.03 μM (first RSL3 column)): 68%
inhibition (%) ([1]; ARPE-19, RSL3, 0.3 μM, compound 0.03 μM (second RSL3 column)): 100%
inhibition (%) ([2]; PC-12, Erastin, 1 μM, compound 0.1 μM): 100%
inhibition (%) ([2]; PC-12, Erastin, 1 μM, compound 1.0 μM): 100%
inhibition (%) ([2]; PC-12, Glutamate, 10 mM, compound 0.1 μM): 29%
inhibition (%) ([2]; PC-12, Glutamate, 10 mM, compound 1.0 μM): 99%
inhibition (%) ([2]; PC-12, RSL3, 0.3 μM, compound 0.1 μM): 100%
inhibition (%) ([2]; PC-12, RSL3, 0.3 μM, compound 1.0 μM): 100%
inhibition (%) ([3]; Erastin, 3 μM, compound 0.1 μM): 98%
inhibition (%) ([3]; Erastin, 3 μM, compound 1.0 μM): 97%
inhibition (%) ([3]; Glutamate, 75 mM, compound 0.1 μM): 90%
inhibition (%) ([3]; Glutamate, 75 mM, compound 1.0 μM): 100%
inhibition (%) ([3]; RSL3, 3 μM, compound 0.1 μM): 97%
inhibition (%) ([3]; RSL3, 3 μM, compound 1.0 μM): 97%
inhibition (%) ([4]; compound 0.03 μM): 25%
inhibition (%) ([4]; compound 0.3 μM): 98%
inhibition (%) ([5]; NIH/3T3, Erastin, 3 μM, compound 0.1 μM): 0%
inhibition (%) ([5]; NIH/3T3, Erastin, 3 μM, compound 1.0 μM): 96%
inhibition (%) ([5]; NIH/3T3, Glutamate, 30 mM, compound 0.1 μM): 98%
inhibition (%) ([5]; NIH/3T3, Glutamate, 30 mM, compound 1.0 μM): 98%
inhibition (%) ([5]; NIH/3T3, RSL3, 3 μM, compound 0.1 μM): 100%
inhibition (%) ([5]; NIH/3T3, RSL3, 3 μM, compound 1.0 μM): 100%
